According to ChEMBL document CHEMBL3044707, “Synthesis of some new glutamine linked 2,3-disubstituted quinazolinone derivatives as potent antimicrobial and antioxidant agents” (Med Chem Res, 2013):
In brackets after ≈: the same amount, converted by molar mass.

Columns and labels:
Assay type in all cases: functional
[1] = tested on: Radical scavenging activity; test: Antioxidant activity assessed as DPPH radical scavenging activity by visible spectrophotometric analysis
Aspergillus flavus [2] = test: Antimicrobial activity against Aspergillus flavus NCIM 524 assessed as diameter of growth inhibition zone at 100 ug/ml after 48 hr by paper disk diffusion method; details: NCIM 524, 48 h, read-out: DIZ
Bacillus subtilis [3] = test: Antimicrobial activity against Bacillus subtilis NCIM 2999 assessed as diameter of growth inhibition zone at 100 ug/ml after 24 hr by paper disk diffusion method; details: NCIM 2999, 24 h, read-out: DIZ
Escherichia coli [4] = test: Antimicrobial activity against Escherichia coli NCIM 2574 assessed as diameter of growth inhibition zone at 100 ug/ml after 24 hr by paper disk diffusion method; details: NCIM 2574, 24 h, read-out: DIZ
Pseudomonas aeruginosa [5] = test: Antimicrobial activity against Pseudomonas aeruginosa NCIM 5029 assessed as diameter of growth inhibition zone at 100 ug/ml after 24 hr by paper disk diffusion method; details: NCIM 5029, 24 h, read-out: DIZ
Staphylococcus aureus [6] = test: Antimicrobial activity against Staphylococcus aureus NCIM 5021 assessed as diameter of growth inhibition zone at 100 ug/ml after 24 hr by paper disk diffusion method; details: NCIM 5021, 24 h, read-out: DIZ
Candida albicans [7] = test: Antimicrobial activity against Candida albicans NCIM 3102 assessed as diameter of growth inhibition zone at 100 ug/ml after 48 hr by paper disk diffusion method; details: NCIM 3102, 48 h, read-out: DIZ
Bacillus subtilis [8] = test: Antimicrobial activity against Bacillus subtilis NCIM 2999 assessed as growth inhibition by agar streak dilution method
Escherichia coli [9] = test: Antimicrobial activity against Escherichia coli NCIM 2574 assessed as growth inhibition by agar streak dilution method
Pseudomonas aeruginosa [10] = test: Antimicrobial activity against Pseudomonas aeruginosa NCIM 5029 assessed as growth inhibition by agar streak dilution method
Staphylococcus aureus [11] = test: Antimicrobial activity against Staphylococcus aureus NCIM 5021 assessed as growth inhibition by agar streak dilution method
[12] = Antioxidant activity assessed as inhibition of NO radical production from sodium nitroprusside after 150 min by Griess reagent analysis
[13] = Antioxidant activity assessed as inhibition of Fe3+/ascorbic acid-induced hydroxyl radical production-mediated 2-deoxyribose degradation after 1 hr
Aspergillus flavus [14] = test: Antimicrobial activity against Aspergillus flavus NCIM 524 assessed as growth inhibition by agar streak dilution method
Candida albicans [15] = test: Antimicrobial activity against Candida albicans NCIM 3102 assessed as growth inhibition by agar streak dilution method
[16] = Antioxidant activity assessed as inhibition of xanthine-xanthine oxidase generated superoxide anion radical-mediated NBT reduction by spectrophotometric analysis

Row | SMILES | IC50 [1] | zone of inhibition at 100 µg/mL (Aspergillus flavus [2]) | zone of inhibition at 100 µg/mL (Bacillus subtilis [3]) | zone of inhibition at 100 µg/mL (Escherichia coli [4]) | zone of inhibition at 100 µg/mL (Pseudomonas aeruginosa [5]) | zone of inhibition at 100 µg/mL (Staphylococcus aureus [6]) | zone of inhibition at 100 µg/mL (Candida albicans [7]) | MIC (Bacillus subtilis [8]) | MIC (Escherichia coli [9]) | MIC (Pseudomonas aeruginosa [10]) | MIC (Staphylococcus aureus [11]) | IC50 [12] | IC50 [13] | MIC (Aspergillus flavus [14]) | MIC (Candida albicans [15]) | IC50 [16]
1 | O=C1O[C@H]([C@@H](O)CO)C(O)=C1O [ASCORBIC ACID] | 12.6 µg/mL (≈ 71.5 µM) | – | – | – | – | – | – | – | – | – | – | – | – | – | – | –
2 | Cc1ccccc1-c1nc2ccccc2c(=O)n1C(=O)CCC(N)C(=O)O (stereo not given) | 24.9 µg/mL (≈ 68.1 µM) | 15 mm | 12 mm | 10 mm | 11 mm | 11 mm | 12 mm | 30 µg/mL (≈ 82.1 µM) | 50 µg/mL (≈ 137 µM) | 30 µg/mL (≈ 82.1 µM) | 50 µg/mL (≈ 137 µM) | 29.1 µg/mL (≈ 79.6 µM) | 30.4 µg/mL (≈ 83.2 µM) | 25 µg/mL (≈ 68.4 µM) | 25 µg/mL (≈ 68.4 µM) | –
3 | NC(CCC(=O)n1c(OCc2ccccc2Cl)nc2ccccc2c1=O)C(=O)O (stereo not given) | 26.1 µg/mL (≈ 62.8 µM) | 11 mm | 14 mm | 10 mm | 13 mm | 12 mm | 13.7 mm | 50 µg/mL (≈ 120 µM) | 50 µg/mL (≈ 120 µM) | 50 µg/mL (≈ 120 µM) | 30 µg/mL (≈ 72.1 µM) | 38.7 µg/mL (≈ 93.1 µM) | 27.7 µg/mL (≈ 66.6 µM) | 40 µg/mL (≈ 96.2 µM) | 25 µg/mL (≈ 60.1 µM) | 31.4 µg/mL (≈ 75.5 µM)
4 | NC(CCC(=O)n1c(Cc2ccccc2)nc2ccccc2c1=O)C(=O)O (stereo not given) | 26.6 µg/mL (≈ 72.8 µM) | 10.2 mm | 7 mm | 11 mm | 11 mm | 10 mm | 14 mm | 50 µg/mL (≈ 137 µM) | > 100 µg/mL | > 100 µg/mL | 50 µg/mL (≈ 137 µM) | 36.2 µg/mL (≈ 99.1 µM) | 29.8 µg/mL (≈ 81.6 µM) | 75 µg/mL (≈ 205 µM) | 100 µg/mL (≈ 274 µM) | 31.6 µg/mL (≈ 86.5 µM)
5 | NC(CCC(=O)n1c(-c2cc(F)cc(F)c2)nc2ccccc2c1=O)C(=O)O (stereo not given) | 27.4 µg/mL (≈ 70.7 µM) | 10.4 mm | 16 mm | 12 mm | 14 mm | 11 mm | 11 mm | 15 µg/mL (≈ 38.7 µM) | 50 µg/mL (≈ 129 µM) | 25 µg/mL (≈ 64.5 µM) | 13 µg/mL (≈ 33.6 µM) | – | 38.1 µg/mL (≈ 98.4 µM) | 25 µg/mL (≈ 64.5 µM) | 15 µg/mL (≈ 38.7 µM) | 45.7 µg/mL (≈ 118 µM)
6 | NC(CCC(=O)n1c(-c2ccc(O)cc2)nc2ccccc2c1=O)C(=O)O (stereo not given) | 14.3 µg/mL (≈ 38.9 µM) | 15 mm | 9 mm | 15 mm | 13 mm | 13 mm | 9 mm | 25 µg/mL (≈ 68.1 µM) | 50 µg/mL (≈ 136 µM) | 50 µg/mL (≈ 136 µM) | 25 µg/mL (≈ 68.1 µM) | 15.2 µg/mL (≈ 41.4 µM) | 17.8 µg/mL (≈ 48.5 µM) | 40 µg/mL (≈ 109 µM) | 40 µg/mL (≈ 109 µM) | 15.2 µg/mL (≈ 41.4 µM)
7 | NC(CCC(=O)n1c(-c2ccc(F)c(F)c2F)nc2ccccc2c1=O)C(=O)O (stereo not given) | 29.7 µg/mL (≈ 73.3 µM) | 14.4 mm | 13.5 mm | 12.7 mm | 14.8 mm | 13.2 mm | 13.6 mm | 8 µg/mL (≈ 19.7 µM) | 12 µg/mL (≈ 29.6 µM) | 10 µg/mL (≈ 24.7 µM) | 8 µg/mL (≈ 19.7 µM) | – | 55.1 µg/mL (≈ 136 µM) | 15 µg/mL (≈ 37 µM) | 10 µg/mL (≈ 24.7 µM) | 48.2 µg/mL (≈ 119 µM)
8 | NC(CCC(=O)n1c(-c2cc(F)ccc2F)nc2ccccc2c1=O)C(=O)O (stereo not given) | 34.9 µg/mL (≈ 90.1 µM) | 10.9 mm | 12 mm | 11 mm | 17 mm | 14 mm | 11.4 mm | 12.5 µg/mL (≈ 32.3 µM) | 30 µg/mL (≈ 77.5 µM) | 35 µg/mL (≈ 90.4 µM) | 12.5 µg/mL (≈ 32.3 µM) | – | 41.8 µg/mL (≈ 108 µM) | 15 µg/mL (≈ 38.7 µM) | 10 µg/mL (≈ 25.8 µM) | 50.8 µg/mL (≈ 131 µM)
9 | NC(CCC(=O)n1c(-c2ccc([N+](=O)[O-])cc2)nc2ccccc2c1=O)C(=O)O (stereo not given) | 36.4 µg/mL (≈ 91.8 µM) | 13.6 mm | 16 mm | 9 mm | 11 mm | 14 mm | 14.1 mm | 12.5 µg/mL (≈ 31.5 µM) | 25 µg/mL (≈ 63.1 µM) | 25 µg/mL (≈ 63.1 µM) | 9.6 µg/mL (≈ 24.2 µM) | 49 µg/mL (≈ 124 µM) | 39 µg/mL (≈ 98.4 µM) | 12.5 µg/mL (≈ 31.5 µM) | 10 µg/mL (≈ 25.2 µM) | –
10 | NC(CCC(=O)n1c(-c2ccc(Cl)cc2)nc2ccccc2c1=O)C(=O)O (stereo not given) | 37.1 µg/mL (≈ 96.2 µM) | 12.1 mm | 12.7 mm | 11.5 mm | 12 mm | 13 mm | 13.6 mm | 11.2 µg/mL (≈ 29 µM) | 15 µg/mL (≈ 38.9 µM) | 15 µg/mL (≈ 38.9 µM) | 10 µg/mL (≈ 25.9 µM) | 41.8 µg/mL (≈ 108 µM) | 49 µg/mL (≈ 127 µM) | 15 µg/mL (≈ 38.9 µM) | 12 µg/mL (≈ 31.1 µM) | 41.8 µg/mL (≈ 108 µM)
11 | Nc1ccc(-c2nc3ccccc3c(=O)n2C(=O)CCC(N)C(=O)O)cc1 (stereo not given) | 17.5 µg/mL (≈ 47.8 µM) | 11 mm | 13 mm | 15 mm | 16 mm | 10 mm | 12.5 mm | 30 µg/mL (≈ 81.9 µM) | 50 µg/mL (≈ 136 µM) | 50 µg/mL (≈ 136 µM) | 25 µg/mL (≈ 68.2 µM) | 19.4 µg/mL (≈ 53 µM) | 18 µg/mL (≈ 49.1 µM) | 50 µg/mL (≈ 136 µM) | 50 µg/mL (≈ 136 µM) | –
12 | NC(CCC(=O)n1c(-c2ccccc2)nc2ccccc2c1=O)C(=O)O (stereo not given) | 29.7 µg/mL (≈ 84.5 µM) | 10 mm | 11 mm | 15 mm | 12 mm | 11 mm | 14 mm | 50 µg/mL (≈ 142 µM) | 50 µg/mL (≈ 142 µM) | 75 µg/mL (≈ 213 µM) | 45 µg/mL (≈ 128 µM) | 36 µg/mL (≈ 102 µM) | 31.2 µg/mL (≈ 88.8 µM) | 25 µg/mL (≈ 71.2 µM) | 30 µg/mL (≈ 85.4 µM) | –
